Source: patent publication US10287267B2, “Isoquinolin-3-yl carboxamides and preparation and use thereof” (Samumed, LLC, priority 2016, dated 2019)

Tests used:
[1] = biological target: recombinant DYRK1A kinase (Homo sapiens (Human), UniProt Q13627); assay: DYRK1A kinase assay (Ser/Thr 18 peptide Z-lyte FRET); format: biochemical; settings: 30 μM ATP, 1 h room temperature;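 also: Read-out is the coumarin to fluorescein emission ratio, referenced to unphosphorylated (0%) and phosphorylated (100%) Ser/Thr 18 peptide controls, values from dose-response curves by non-linear regression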
[2] = test system: SW480 colon carcinoma cells; assay: Cell viability assay (CellTiter-Glo); format: cell-based, human; settings: Homo sapiens; for EC50: 96 h, SW480 cells, CellTiter-Glo, four days incubation; for inhibition at 10 µM: SW480, read-out: percent inhibition at 10 μM
IL-6 = IL-6 inhibition in LPS-stimulated human peripheral blood mononuclear cells (HTRF); format: cell-based; settings: Homo sapiens, PBMC; for EC50: Table 9, huPBMCs, LPS 50 ng/mL, 22 hours, dose-response starting from 10 μM; for inhibition at 10 µM: read-out: percent value in parentheses beside EC50 >10 μM;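 as to all read-outs here: IL-6 detected by HTRF with an XL665- and Cryptate-labelled anti-IL-6 antibody pair, samples run in duplicate, EC50 obtained from a four-parameter Levenberg-Marquardt curve fit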
Procedure: After 22 hour incubation, a mixture of anti-IL6 XL665 and anti-IL-6 Cryptate diluted in reconstitution buffer (Catalog #62IL6PEC, Cisbio Inc., Bedford, Mass.) was added to each well. […] All samples were processed in duplicate. […] EC50 was determined using software generated by Dotmatics Limited (Windhill Bishops Stortford Herts, UK) using the Levenberg-Marquardt 4 parameter fitting procedure with finite different gradients.

[3] = test system: Tau phosphorylation at Ser396 (pSer396); assay: Tau phosphorylation assay (pSer396 ELISA / western blot) in SH-SY5Y cells; format: cell-based, human; settings: Homo sapiens; SH-SY5Y cells, overnight (16-18 h) exposure; read-out: pSer396 Tau EC50;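 also: EC50 for reduction of Tau pSer396 in lysed cells, measured by colorimetric ELISA or chemiluminescent western blot, both using the same pSer396 antibody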
recombinant GSK3β kinase = recombinant GSK3β kinase (Homo sapiens (Human), UniProt P49841); assay: GSK3β kinase assay (Ser/Thr 09 peptide Z-lyte FRET); format: biochemical; settings: 46 μM ATP, 1 h room temperature;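 also: kinase activity read as coumarin to fluorescein emission ratio, 11-point threefold dilutions from 10 µM to 0.0003 µM in duplicate, unphosphorylated and phosphorylated peptide as 0% and 100% controls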
[4] = test system: Wnt pathway (Sp5-Luc reporter, TCF/LEF binding sites) in SW480 colon carcinoma cells; assay: Screening assay for Wnt activity: Sp5-Luc reporter gene assay; format: cell-based, human; settings: Homo sapiens; for EC50: Sp5-Luc reporter, SW480 cells, 36 to 48 hours; for inhibition at 10 µM: SW480, read-out: percent inhibition at 10 μM;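 as to all read-outs here: firefly luciferase luminescence read in stably transduced SW480 cells carrying the Sp5 promoter reporter with eight TCF/LEF sites, compounds given in 0.1% DMSO final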
Procedure: The screening assay for Wnt activity is described as follows.
Following incubation, 15 μl of BriteLite Plus luminescence reagent (Perkin Elmer) was added to each well of the 384-well assay plates. The plates were placed on an orbital shaker for 2 min and then luminescence was quantified using the Envision (Perkin Elmer) plate reader.

[5] = test system: α-smooth muscle actin (αSMA) positive LL29 cells; assay: Inhibition of fibrotic process: αSMA in TGF-β1 treated primary human fibroblasts from IPF patients; format: cell-based; settings: Homo sapiens, Fibroblast; for EC50: 96 h, Table 8, LL29 fibroblasts from IPF patients, TGF-β1 20 ng/mL, 4 days, dose-response 10 μM to 0.94 nM; for inhibition at 10 µM: read-out: percent value in parentheses beside EC50 >10 μM;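 as to all read-outs here: controls were TGF-β1 stimulated wells with DMSO vehicle (positive) and cells given DMSO alone (negative), cultured in F12 medium with 1% fetal bovine serum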

Sequence of recombinant GSK3β kinase (P49841 whole entry): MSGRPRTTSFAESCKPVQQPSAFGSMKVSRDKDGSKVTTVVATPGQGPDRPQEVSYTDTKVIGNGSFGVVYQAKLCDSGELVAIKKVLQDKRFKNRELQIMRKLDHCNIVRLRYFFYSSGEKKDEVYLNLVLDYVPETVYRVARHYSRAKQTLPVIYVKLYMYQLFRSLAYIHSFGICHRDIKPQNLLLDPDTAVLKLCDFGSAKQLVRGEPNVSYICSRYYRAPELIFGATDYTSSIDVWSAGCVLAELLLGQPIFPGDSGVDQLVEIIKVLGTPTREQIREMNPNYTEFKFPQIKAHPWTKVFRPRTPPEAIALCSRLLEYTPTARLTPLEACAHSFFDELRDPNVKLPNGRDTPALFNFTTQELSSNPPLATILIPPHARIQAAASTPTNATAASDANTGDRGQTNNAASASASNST

SMILES	EC50 [1] [nM]	EC50 [2] [nM]	EC50 (IL-6) [nM]	EC50 [3] [nM]	EC50 (recombinant GSK3β kinase) [nM]	EC50 [4] [nM]	EC50 [5] [nM]	inhibition at 10 µM [4] [%]	inhibition at 10 µM [5] [%]	inhibition at 10 µM (IL-6) [%]	inhibition at 10 µM [2] [%]
O=C(Nc1cc2cc(-c3cnco3)ccc2cn1)[C@H]1CC[C@@H](N2CCOCC2)CC1 [Compound 979, cis-4-Morpholino-N-(6-(oxazol-5-yl)isoquinolin-3-yl)cyclohexane-1-carboxamide]	10	2220	4300	569	791	4090	1030				
CN(CC(=O)Nc1cc2cc(-c3cnco3)ccc2cn1)C1CCC1 [Compound 980, 2-(Cyclobutyl(methyl)amino)-N-(6-(oxazol-5-yl)isoquinolin-3-yl)acetamide]	19.1	5740	3680	2100	389	> 10000	> 10000	40.5	40.3		
O=C(CN1CCCC1)Nc1cc2cc(-c3cnco3)ccc2cn1 [Compound 981, N-(6-(Oxazol-5-yl)isoquinolin-3-yl)-2-(pyrrolidin-1-yl)acetamide]	13.7	546	1100	1100	141	1080	605				
C[C@@H]1CCCN1CC(=O)Nc1cc2cc(-c3cnco3)ccc2cn1 [Compound 982, (R)-2-(2-Methylpyrrolidin-1-yl)-N-(6-(oxazol-5-yl)isoquinolin-3-yl) acetamide]	19.2	1210	2790	1100	265	2710	767				
CN1CCN(CC(=O)Nc2cc3cc(-c4cnco4)ccc3cn2)CC1 [Compound 983, 2-(4-Methylpiperazin-1-yl)-N-(6-(oxazol-5-yl)isoquinolin-3-yl)acetamide]	22.3	4620	> 10000	1500	303	5530	679			9.1	
Cn1ncc(-c2ccc3cnc(NC(=O)C4CCOCC4)cc3c2)c1CO [Compound 984, N-(6-(5-(Hydroxymethyl)-1-methyl-1H-pyrazol-4-yl)isoquinolin-3-yl) tetrahydro-2H-pyran-4-carboxamide]	5.5	3130	8760	2100	236	2990	1240				
CN1CCC(C(=O)Nc2cc3cc(-c4cnn(C)c4CO)ccc3cn2)CC1 [Compound 985, N-(6-(5-(Hydroxymethyl)-1-methyl-1H-pyrazol-4-yl)isoquinolin-3-yl)-1-methylpiperidine-4-carboxamide]	4.1	1720	3890	3200	283	1160	> 10000		38		
O=C(Nc1cc2cc(-c3cnc4n3CCNC4)ccc2cn1)C1CC(F)(F)C1 [Compound 986, 3,3-Difluoro-N-(6-(5,6,7,8-tetrahydroimidazo[1,2-a]pyrazin-3-yl)isoquinolin-3-yl)cyclobutane-1-carboxamide]	11	3300	> 10000	387	21	1380	158			13.4	
O=C(Nc1cc2cc(-c3cnc4n3CCNC4)ccc2cn1)[C@H]1CCCN1 [Compound 987, (R)—N-(6-(5,6,7,8-Tetrahydroimidazo[1,2-a]pyrazin-3-yl)isoquinolin-3-yl) pyrrolidine-2-carboxamide]	42.8	> 10000	> 10000	> 10000	2320	> 10000	> 10000	10.7	42	6.5	10.6
O=C(Nc1cc2cc(-c3cnc4n3CCNC4)ccc2cn1)[C@@H]1CCCNC1 [Compound 988, (R)—N-(6-(5,6,7,8-Tetrahydroimidazo[1,2-a]pyrazin-3-yl)isoquinolin-3-yl) piperidine-3-carboxamide]	24.9	> 10000	> 10000	> 10000	1090	> 10000	> 10000	11.1	46.5	8.8	18
CN1CCC(C(=O)Nc2cc3cc(-c4cnc5n4CCNC5)ccc3cn2)CC1 [Compound 989, 1-Methyl-N-(6-(5,6,7,8-tetrahydroimidazo[1,2-a]pyrazin-3-yl)isoquinolin-3-yl)piperidine-4-carboxamide]	16.2	> 10000	> 10000	> 10000	298	4320	4420			12.5	36.4
O=C(Nc1cc2cc(-c3cnc4n3CCNC4)ccc2cn1)C1CCN(CC2(C(F)(F)F)CC2)CC1 [Compound 990, N-(6-(5,6,7,8-Tetrahydroimidazo[1,2-a]pyrazin-3-yl)isoquinolin-3-yl)-1-((1-(trifluoromethyl)cyclopropyl)methyl)piperidine-4-carboxamide]	21.3	3550	> 10000	1800	100	2860	782			0	
O=C(Nc1cc2cc(-c3cnc4n3CCNC4)ccc2cn1)C1CCN(C(=O)c2ccccc2)CC1 [Compound 991, 1-Benzoyl-N-(6-(5,6,7,8-tetrahydroimidazo[1,2-a]pyrazin-3-yl)isoquinolin-3-yl)piperidine-4-carboxamide]	3.3	3960	3240	10000	29	1700	2680				
Cn1ncc(-c2ccc3cnc(NC(=O)C4CC5(C4)CN(C(=O)OC(C)(C)C)C5)cc3c2)c1CN1CCCCC1 [Compound 992, tert-Butyl 6-((6-(1-methyl-5-(piperidin-1-ylmethyl)-1H-pyrazol-4-yl)isoquinolin-3-yl)carbamoyl)-2-azaspiro[3.3]heptane-2-carboxylate]	25.3	5600	> 10000	350	14	3210	2970			2.6	
Cc1ncc(-c2ccc3cnc(NC(=O)CN4CCCC4)cc3c2)s1 [Compound 993, N-(6-(2-Methylthiazol-5-yl)isoquinolin-3-yl)-2-(pyrrolidin-1-yl)acetamide]	14.7	6580	8840	702	87	7970	1490				
Cc1ncc(-c2ccc3cnc(NC(=O)CN4CCOCC4)cc3c2)s1 [Compound 994, N-(6-(2-Methylthiazol-5-yl)isoquinolin-3-yl)-2-morpholinoacetamide]	12.9	> 10000	> 10000	1900	110	7900	567			31.8	36.8
Cc1ncc(-c2ccc3cnc(NC(=O)CN4CCN(C)CC4)cc3c2)s1 [Compound 995, 2-(4-Methylpiperazin-1-yl)-N-(6-(2-methylthiazol-5-yl)isoquinolin-3-yl) acetamide]	13.3	> 10000	8930	2400	177	> 10000	1250	43.8			47.6
Cc1ncc(-c2ccc3cnc(NC(=O)CN4C[C@H]5C[C@@H]4CO5)cc3c2)s1 [Compound 996, 2-((1R,4R)-2-Oxa-5-azabicyclo[2.2.1]heptan-5-yl)-N-(6-(2-methylthiazol-5-yl)isoquinolin-3-yl)acetamide]	13.4	> 10000	> 10000	3100	141	4390	1200			10.6	32.2
O=C(Nc1cc2cc(-c3cnn4c3CNCC4)ccc2cn1)C1CCN(CC2(C(F)(F)F)CC2)CC1 [Compound 997, N-(6-(4,5,6,7-Tetrahydropyrazolo[1,5-a]pyrazin-3-yl)isoquinolin-3-yl)-1-((1-(trifluoromethyl)cyclopropyl)methyl)piperidine-4-carboxamide]	186	5060	> 10000	1300	33	3890	567			28.6	
O=C(Nc1cc2cc(-c3cnn4c3CN(CCF)CC4)ccc2cn1)C1CCN(CC2(C(F)(F)F)CC2)CC1 [Compound 998, N-(6-(5-(2-Fluoroethyl)-4,5,6,7-tetrahydropyrazolo[1,5-a]pyrazin-3-yl)isoquinolin-3-yl)-1-((1-(trifluoromethyl)cyclopropyl)methyl)piperidine-4-carboxamide]	6.2	4750	7080	638	102	2250	260				
